Measured values from patent US10662555B2, “Polyimide fiber and method for producing polyimide fiber” (I.S.T Corporation, priority 2016, dated 2020).

Columns and labels:
[1] = octanol-water partition coefficient (Log P) at 25° C., shake flask method; conditions: for logP: octanol/water; for Log P: octanol-water partition coefficient at 25° C.
[2] = conjugate acid in water at 25° C.; cited from earlier work

Structure (SMILES)	logP [1]	Log P [1]	also measured
Cc1nccn1C [1,2-dimethyl-1,3-diazole]	0.11	–	–
Cn1ccnc1 [1-methyl-1,3-diazole]	-0.19	–	pKa [2]: 6.95
Cc1ncc[nH]1 [2-methyl-1,3-diazole]	–	0.24	–
C1CNCCN1 [Piperazine, piperazine]	–	−1.5	–
CC(O)CN(CC(C)O)CC(C)O (centres unmarked) [triisopropanolamine]	–	–	logP (physchem): -0.015
Cc1cccnc1 [β-picoline]	–	1.2	–

Continued, in another order:

logP [1]	Log P [1]	Structure (SMILES)	also measured
> 2.79	>2.79	CCCCN(CCCC)CCCC [Tributylamine, tributylamine]	–
1.45	–	CCN(CC)CC [Triethylamine, triethylamine]	–
–	2.79	CCCN(CCC)CCC [Tripropylamine, tripropylamine]	–
